In patent US12227496B2 (BRISTOL-MYERS SQUIBB COMPANY, priority 2019, dated 2025):

The compounds below were run against T1, human FXR (Homo sapiens, UniProt Q96RI1) (assay: transient human FXR/Gal4-luciferase reporter assay). Details: Gal4-hFXR LBD fusion, luciferase reporter in HEK293 cells; response relative to 8 μM GW-4064.
T1 construct: expressed in transfected cells; host or cells: HEK293 cells stably carrying a 5xGal4-response-element firefly luciferase reporter, transiently transfected with pcDNA3.1-Gal4-FXR
T1 sequence (Q96RI1 262-486 limits assumed): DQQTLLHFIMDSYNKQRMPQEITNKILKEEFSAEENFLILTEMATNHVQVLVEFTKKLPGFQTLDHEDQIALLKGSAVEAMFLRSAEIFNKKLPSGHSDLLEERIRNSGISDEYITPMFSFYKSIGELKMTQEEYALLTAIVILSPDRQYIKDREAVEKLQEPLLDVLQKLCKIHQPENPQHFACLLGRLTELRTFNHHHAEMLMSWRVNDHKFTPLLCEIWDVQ
Assay type: cell-based
In short: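 HEK293 cells stably carrying a 5×Gal4-response-element firefly luciferase reporter were transiently transfected with Gal4-hFXR. They were then incubated overnight at 37 °C with compound serial dilutions in medium containing 10% charcoal/dextran-stripped FBS. Luminescence was read after Steady-Glo addition.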

SMILES	EC50 [µM]
CCOc1ncc(-c2cccc(N(CC34CCC(c5noc(C(C)(C)F)n5)(CC3)CC4)C(=O)c3ccc(OC(F)F)cc3)c2)cn1 [Example 144, 4-(difluoromethoxy)-N-(3-(2-ethoxypyrimidin-5-yl)phenyl)-N-((4-(5-(2-fluoropropan-2-yl)-1,2,4-oxadiazol-3-yl)bicyclo[2.2.2]octan-1-yl)methyl)benzamide]	0.334
CC(C)(C)c1noc(C23CCC(CN(C(=O)C4CCC(F)(F)CC4)c4cccc(-c5cc(C6CC6)no5)c4)(CC2)CC3)n1 [Example 147, N-((4-(3-(tert-butyl)-1,2,4-oxadiazol-5-yl)bicyclo[2.2.2]octan-1-yl)methyl)-N-(3-(3-cyclopropylisoxazol-5-yl)phenyl)-4,4-difluorocyclohexane-1-carboxamide]	0.205
CC(C)(C)c1nc(C23CCC(CN(C(=O)C4CCC(F)(F)CC4)c4cccc(-c5cc(C6CC6)no5)c4)(CC2)CC3)no1 [Example 148, N-((4-(5-(tert-butyl)-1,2,4-oxadiazol-3-yl)bicyclo[2.2.2]octan-1-yl)methyl)-N-(3-(3-cyclopropylisoxazol-5-yl)phenyl)-4,4-difluorocyclohexane-1-carboxamide]	0.107
O=C(C1CCC(F)(F)CC1)N(CC12CCC(c3noc(C4(C(F)(F)F)CC4)n3)(CC1)CC2)c1cccc(-c2cc(C3CC3)no2)c1 [Example 149, N-(3-(3-cyclopropylisoxazol-5-yl)phenyl)-4,4-difluoro-N-((4-(5-(1-(trifluoromethyl)cyclopropyl)-1,2,4-oxadiazol-3-yl)bicyclo[2.2.2]octan-1-yl)methyl)cyclohexane-1-carboxamide]	0.078
O=C(C1CCS(=O)(=O)CC1)N(CC12CCC(c3nc(C4CC4)no3)(CC1)CC2)c1cccc(-c2cc(C3CC3)no2)c1 [Example 152, N-((4-(3-cyclopropyl-1,2,4-oxadiazol-5-yl)bicyclo[2.2.2]octan-1-yl)methyl)-N-(3-(3-cyclopropylisoxazol-5-yl)phenyl)tetrahydro-2H-thiopyran-4-carboxamide 1,1-dioxide]	0.662
CC(F)(F)c1nc(C23CCC(CN(C(=O)C4CCS(=O)(=O)CC4)c4cccc(-c5cc(C6CC6)on5)c4)(CC2)CC3)no1 [Example 155, N-(3-(5-cyclopropylisoxazol-3-yl)phenyl)-N-((4-(5-(1,1-difluoroethyl)-1,2,4-oxadiazol-3-yl)bicyclo[2.2.2]octan-1-yl)methyl)tetrahydro-2H-thiopyran-4-carboxamide 1,1-dioxide]	0.289
CC(F)(F)c1nc(C23CCC(CN(C(=O)C4CCC(O)(C(F)(F)F)CC4)c4cccc(-c5cc(C6CC6)on5)c4)(CC2)CC3)no1 (stereo not shown) [Example 157, N-(3-(5-cyclopropylisoxazol-3-yl)phenyl)-N-((4-(5-(1,1-difluoroethyl)-1,2,4-oxadiazol-3-yl)bicyclo[2.2.2]octan-1-yl)methyl)-4-hydroxy-4-(trifluoromethyl)cyclohexane-1-carboxamide]	0.242
CC(F)(F)c1nc(C23CCC(CN(C(=O)C4CCC(O)(C(F)(F)F)CC4)c4cccc(-c5cc(C6CC6)on5)c4)(CC2)CC3)no1 (stereo not shown) [Example 158, N-(3-(5-cyclopropylisoxazol-3-yl)phenyl)-N-((4-(5-(1,1-difluoroethyl)-1,2,4-oxadiazol-3-yl)bicyclo[2.2.2]octan-1-yl)methyl)-4-hydroxy-4-(trifluoromethyl)cyclohexane-1-carboxamide]	0.195
CC(C)(C)c1noc(C23CCC(CN(C(=O)C4CCC(F)(F)CC4)c4cccc(-c5cc(C6CC6)on5)c4)(CC2)CC3)n1 [Example 159, N-((4-(3-(tert-butyl)-1,2,4-oxadiazol-5-yl)bicyclo[2.2.2]octan-1-yl)methyl)-N-(3-(5-cyclopropylisoxazol-3-yl)phenyl)-4,4-difluorocyclohexane-1-carboxamide]	0.078
CC(C)(C)c1noc(C23CCC(CN(C(=O)C4CCS(=O)(=O)CC4)c4cccc(-c5cc(C6CC6)on5)c4)(CC2)CC3)n1 [Example 160, N-((4-(3-(tert-butyl)-1,2,4-oxadiazol-5-yl)bicyclo[2.2.2]octan-1-yl)methyl)-N-(3-(5-cyclopropylisoxazol-3-yl)phenyl)tetrahydro-2H-thiopyran-4-carboxamide 1,1-dioxide]	0.701
CC(C)(C)c1noc(C23CCC(CN(C(=O)C4CCOCC4)c4cccc(-c5cc(C6CC6)on5)c4)(CC2)CC3)n1 [Example 161, N-((4-(3-(tert-butyl)-1,2,4-oxadiazol-5-yl)bicyclo[2.2.2]octan-1-yl)methyl)-N-(3-(5-cyclopropylisoxazol-3-yl)phenyl)tetrahydro-2H-pyran-4-carboxamide]	0.077
Cn1nc(C2CC2)cc1C12CCC(CN(C(=O)C3CCC(F)(F)CC3)c3cccc(-c4cc(C5CC5)on4)c3)(CC1)CC2 [Example 163, N-((4-(3-cyclopropyl-1-methyl-1H-pyrazol-5-yl)bicyclo[2.2.2]octan-1-yl)methyl)-N-(3-(5-cyclopropylisoxazol-3-yl)phenyl)-4,4-difluorocyclohexane-1-carboxamide]	0.13
CCOc1ccc(-c2cc(N(CC34CCC(c5nc(C(C)(C)C)no5)(CC3)CC4)C(=O)C3CCC(C)(O)CC3)ccc2F)cc1 (stereo not shown) [Example 166, N-((4-(3-(tert-butyl)-1,2,4-oxadiazol-5-yl)bicyclo[2.2.2]octan-1-yl)methyl)-N-(4′-ethoxy-6-fluoro-[1,1′-biphenyl]-3-yl)-4-hydroxy-4-methylcyclohexane-1-carboxamide]	1.08

The next compounds have a lower EC50 than those just listed; values first:

EC50 [µM]	SMILES
0.038	CC(F)(F)c1nc(C23CCC(CN(C(=O)C4CCC(F)(F)CC4)c4cccc(-c5cc(C6CC6)no5)c4)(CC2)CC3)no1 [Example 150, N-(3-(3-cyclopropylisoxazol-5-yl)phenyl)-N-((4-(5-(1,1-difluoroethyl)-1,2,4-oxadiazol-3-yl)bicyclo[2.2.2]octan-1-yl)methyl)-4,4-difluorocyclohexane-1-carboxamide]
0.038	O=C(C1CCC(F)(F)CC1)N(CC12CCC(c3nc(C4CC4)no3)(CC1)CC2)c1cccc(-c2cc(C3CC3)no2)c1 [Example 151, N-((4-(3-cyclopropyl-1,2,4-oxadiazol-5-yl)bicyclo[2.2.2]octan-1-yl)methyl)-N-(3-(3-cyclopropylisoxazol-5-yl)phenyl)-4,4-difluorocyclohexane-1-carboxamide]
0.057	O=C(C1CCOCC1)N(CC12CCC(c3nc(C4CC4)no3)(CC1)CC2)c1cccc(-c2cc(C3CC3)no2)c1 [Example 153, N-((4-(3-cyclopropyl-1,2,4-oxadiazol-5-yl)bicyclo[2.2.2]octan-1-yl)methyl)-N-(3-(3-cyclopropylisoxazol-5-yl)phenyl)tetrahydro-2H-pyran-4-carboxamide]
0.057	CC(F)(F)c1nc(C23CCC(CN(C(=O)C4CCC(F)(F)CC4)c4cccc(-c5cc(C6CC6)on5)c4)(CC2)CC3)no1 [Example 154, N-(3-(5-cyclopropylisoxazol-3-yl)phenyl)-N-((4-(5-(1,1-difluoroethyl)-1,2,4-oxadiazol-3-yl)bicyclo[2.2.2]octan-1-yl)methyl)-4,4-difluorocyclohexane-1-carboxamide]
0.044	CC(F)(F)c1nc(C23CCC(CN(C(=O)C4CCOCC4)c4cccc(-c5cc(C6CC6)on5)c4)(CC2)CC3)no1 [Example 156, N-(3-(5-cyclopropylisoxazol-3-yl)phenyl)-N-((4-(5-(1,1-difluoroethyl)-1,2,4-oxadiazol-3-yl)bicyclo[2.2.2]octan-1-yl)methyl)tetrahydro-2H-pyran-4-carboxamide]
0.041	CC(C)(C)c1nc(C23CCC(CN(C(=O)C4CCC(F)(F)CC4)c4cccc(-c5cc(C6CC6)on5)c4)(CC2)CC3)no1 [Example 162, N-((4-(5-(tert-butyl)-1,2,4-oxadiazol-3-yl)bicyclo[2.2.2]octan-1-yl)methyl)-N-(3-(5-cyclopropylisoxazol-3-yl)phenyl)-4,4-difluorocyclohexane-1-carboxamide]
